Laboratory results as given in PubChem BioAssay (NCI).
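These data come from cells grown in 96-well plates and exposed to compound for 48 hours at five concentrations. TGI: concentration producing complete growth inhibition.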

Assays:
Test in all cases: DTP human tumour cell line panel, 48 h
COLO 205 colon = test system: COLO 205 colon
DMS 273 small cell lung = test system: DMS 273 small cell lung
EKVX NSCLC = test system: EKVX NSCLC
HCC-2998 colon = test system: HCC-2998 colon
HOP-62 NSCLC = test system: HOP-62 NSCLC
HOP-92 NSCLC = test system: HOP-92 NSCLC
KM12 colon = test system: KM12 colon
KM20L2 colon = test system: KM20L2 colon
LOX IMVI melanoma = test system: LOX IMVI melanoma
M19-MEL melanoma = test system: M19-MEL melanoma

Compound | TGI (COLO 205 colon) | TGI (DMS 273 small cell lung) | TGI (EKVX NSCLC) | TGI (HCC-2998 colon) | TGI (HOP-62 NSCLC) | TGI (HOP-92 NSCLC) | TGI (KM12 colon) | TGI (KM20L2 colon) | TGI (LOX IMVI melanoma) | TGI (M19-MEL melanoma)
Cc1ccc(C(=O)O/N=C2/CCCC/C2=C\c2ccccc2)cc1 | > 100 µM | 76.9 µM | > 100 µM | > 100 µM | > 100 µM | > 100 µM | > 100 µM | > 100 µM | 44.2 µM | > 100 µM
CCOc1ccccc1NC(=O)CCC(=O)OC | > 100 µM | > 100 µM | > 100 µM | > 100 µM | > 100 µM | > 100 µM | > 100 µM | > 100 µM | > 31.6 µM | > 100 µM
CC1CC2C3CC(F)C4=CC(=O)C=CC4(C)C3(F)C(O)CC2(C)C1(O)C(=O)COC(=O)C(C)(C)C (stereo not given) | > 100 µM | > 100 µM | > 100 µM | > 100 µM | > 100 µM | > 100 µM | > 100 µM | > 100 µM | > 100 µM | > 100 µM
O=C1OC(=O)c2c1c(-c1ccccc1)cn2-c1ccc(Cl)cc1 | 37.5 µM | > 100 µM | > 100 µM | > 100 µM | > 100 µM | > 100 µM | > 100 µM | > 100 µM | > 100 µM | > 100 µM
N#C/C(=C\c1ccccc1O)C(N)=O | > 100 µM | > 100 µM | > 100 µM | > 100 µM | > 100 µM | > 100 µM | > 100 µM | > 100 µM | > 100 µM | > 100 µM
